Test results taken from patent US12589099B2 (priority 2021, dated 2026).

Experiments:
[1] = test system: Pseudomonas aeruginosa (ATCC No. 9027); assay: USP 51 Preservative Challenge Test; type: cell-based; conditions: P. aeruginosa ATCC 9027
Method: (§1) In order to assess the anti-microbial properties of ALPHA-1062, the USP (US Pharmacopeia) Chapter 51 Preservative Challenge Test (USP 51) was employed. The USP 51 is a common method used to gauge preservative effectiveness. Much like a Preservative Challenge Screen, it is used to evaluate the effect of preservatives in cosmetics, personal care products, and drug products. Preservatives are typically antimicrobial ingredients that are added to aqueous product formulations to help maintain the safety of the product by inhibiting the growth and reducing the number of microbial contaminants.
(§2) In the context of the present invention, ALPHA-1062 (in the form of the gluconate salt) was assessed in place of (as) a preservative. No additional preservative was added to the ALPHA-1062 gluconate preparation, rather an anti-microbial effect of the agent itself (ALPHA-1062) was assessed. ALPHA-1062 is therefore the anti-microbial agent in the assay and experiments described below.
(§3) The USP 51 challenge test utilizes 5 microorganisms (3 bacteria and 2 fungi) for challenge testing. Each of the microorganisms are known strains of pathogenic microorganisms and they represent a wide range of microbial physiologies.
(§4) Cultures of the following microorganisms were applied, as per standard guidelines for USP 51: Candida albicans (ATCC No. 10231), Aspergillus brasiliensis (ATCC No. 16404), Escherichia coli (ATCC No. 8739), Pseudomonas aeruginosa (ATCC No. 9027), and Staphylococcus aureus (ATCC No. 6538).
(§5) The test was conducted in five sterile, capped bacteriological containers of suitable size into which a sufficient volume of product has been transferred. Each container was inoculated with one of the prepared and standardized inoculums and was mixed accordingly. The volume of the suspension inoculum used was between 0.5% and 1.0% of the volume of the product. The concentration of test microorganisms that was added to the product was such that the final concentration of the test preparation after inoculation was between 1×10^5 and 1×10^6 CFU per mL of the product, according to standard guidelines for Category 2 products.
(§6) The initial concentration of viable microorganisms in each test preparation was estimated based on the concentration of microorganisms in each of the standardized inoculums, as determined by the plate-count method.
(§7) The inoculated containers were incubated at 22.5±2.5° C. and each container was sampled at the appropriate intervals, as specified in Table 3. Any changes observed in the appearance of the culture was recorded at these intervals. By using the plate-count procedure, the number of CFU present in each test preparation was determined for the applicable intervals.
(§8) An inactivator (neutralizer) of the specific antimicrobial was incorporated in the plate count or in the appropriate dilution prepared for plating. These conditions were determined in the validation study for that sample based upon the conditions of media and microbial recovery incubation times listed in Table 2. Using the calculated concentrations of CFU per mL present at the start of the test, the change in log 10 values of the concentration of CFU per mL for each microorganism was calculated at the applicable test intervals, and the changes were expressed in terms of log reductions.
(§9) The USP Criteria for Category 2 were employed in order to determine the presence of an anti-microbial effect. For bacteria, an antimicrobial effect is evident when at least a 2.0 log reduction from the initial count is evident at 14 days and no increase is evident from the 14-day count at 28 days. For yeast and molds, an antimicrobial effect is evident when no increase from the initial calculated count is determined at 14 and 28 days.

[2] = test system: Candida albicans (ATCC No. 10231); assay: USP 51 Preservative Challenge Test; type: cell-based; conditions: C. albicans ATCC 10231
Method: as §1, §2, §3, §4, §5, §6, §7, §8, §9

[3] = test system: Escherichia coli (ATCC No. 8739); assay: USP 51 Preservative Challenge Test; type: cell-based; conditions: E. coli ATCC 8739
Method: as §1, §2, §3, §4, §5, §6, §7, §8, §9

[4] = test system: Aspergillus brasiliensis (ATCC No. 16404); assay: USP 51 Preservative Challenge Test; type: cell-based; conditions: A. brasiliensis ATCC 16404; initial Log10 5.3
Method: as §1, §2, §3, §4, §5, §6, §7, §8, §9

[5] = test system: Staphylococcus aureus (ATCC No. 6538); assay: USP 51 Preservative Challenge Test; type: cell-based; conditions: S. aureus ATCC 6538
Method: as §1, §2, §3, §4, §5, §6, §7, §8, §9

[6] = test system: 5 microorganisms (3 bacteria and 2 fungi); assay: USP 51 Preservative Challenge Test, overall assessment by USP Criteria for Category 2; type: cell-based; conditions: 14 and 28 days
Method: as §1
In the context of the present invention, ALPHA-1062 (in the form of the gluconate salt) was assessed in place of (as) a preservative. No additional preservative was added to the ALPHA-1062 gluconate preparation, rather an anti-microbial effect of the agent itself (ALPHA-1062) was assessed. ALPHA-1062 is therefore the anti-microbial agent in the assay and experiments described below. […]
The inoculated containers were incubated at 22.5±2.5° C. and each container was sampled at the appropriate intervals, as specified in Table 3. Any changes observed in the appearance of the culture was recorded at these intervals. By using the plate-count procedure, the number of CFU present in each test preparation was determined for the applicable intervals. […]

[7] = 43% RH (RT), up to 5 days; cited from earlier work
[8] = initial 2.9 × 10^5 CFU/mL (Log10 5.5), 22.5±2.5° C., no additional preservative
[9] = initial 6.7 × 10^5 CFU/mL (Log10 5.8), 22.5±2.5° C., no additional preservative
[10] = initial 9.1 × 10^5 CFU/mL (Log10 6.0), 22.5±2.5° C., no additional preservative
[11] = initial 4.0 × 10^5 CFU/mL (Log10 5.6), 22.5±2.5° C., no additional preservative

SMILES	Day 14 CFU/mL [1, 8] [CFU/mL]	Day 28 CFU/mL [1, 8] [CFU/mL]	Day 14 Log Reduction ([1]; initial Log10 5.5)	Day 28 Log Reduction ([1]; initial Log10 5.5)	Day 14 CFU/mL [2, 9] [CFU/mL]	Day 28 CFU/mL [2, 9] [CFU/mL]	Day 14 Log Reduction ([2]; initial Log10 5.8)	Day 28 Log Reduction ([2]; initial Log10 5.8)	Day 14 CFU/mL [3, 10] [CFU/mL]	Day 28 CFU/mL [3, 10] [CFU/mL]	Day 14 Log Reduction ([3]; initial Log10 6.0)	Day 28 Log Reduction ([3]; initial Log10 6.0)	Day 14 Log Reduction [4]	Day 28 Log Reduction [4]	Day 14 CFU/mL [5, 11] [CFU/mL]	Day 28 CFU/mL [5, 11] [CFU/mL]	Day 14 Log Reduction ([5]; initial Log10 5.6)	Day 28 Log Reduction ([5]; initial Log10 5.6)	anti-microbial effect against all 5 organisms tested in the USP 51 [6]	solid state stability of the crystalline form [7]
COc1ccc2c3c1O[C@H]1C[C@@H](OC(=O)c4ccccc4)C=C[C@@]31CCN(C)C2 [ALPHA-1062 Gluconate]	<10	<10	4.5	4.5	<10	<10	4.8	4.8	<10	<10	5.0	5.0	3.1	3.1	<10	<10	4.6	4.6	strong anti-microbial effect	
COc1ccc2c3c1O[C@H]1C[C@@H](OC(=O)c4ccccc4)C=C[C@@]31CCN(C)C2.O=C(O)C(O)C(O)C(O)C(O)CO [Form A]																				kinetically stable
